Experimental data from publication PMC9616786, “Structure and function of the N-terminal extension of the formin INF2” (Cellular and Molecular Life Sciences, 2022).

Biological target: T1, purified CaM from bovine brain (Bos taurus, UniProt P62157)
T1 construct: Calmodulin from bovine brain; purchased Sigma-Aldrich Cat#208694; host or cells: bovine brain (tissue-purified)
Experiment: Surface plasmon resonance, equilibrium binding of CaM to immobilized INF2 peptides
Details: SPR, in the presence of Ca2+ (1 mM CaCl2), 25 °C; Fig. 4B-D, Fig. S3F
Excerpt: For use in surface plasmon resonance analysis, the peptide corresponding to amino acids 2-19 of human INF2 and similar peptides with replacements in the W11, L14 and L18 residues were synthesized in an automated multiple peptide synthesizer (Multipep, Intavis, Köln, Germany) in the Proteomics Facility of the Centro Nacional de Biotecnología (CSIC, Madrid). The INF2 2–36 peptide was obtained as a bespoke product with the same modifications from pepMic (Suzhou, China). These peptides contained two G residues at its N terminus to separate the INF2 sequence from an additional N-terminal end K residue, which was biotinylated in the ε-amino group. For use in NMR studies, the INF2 2–36 and 2-19 peptides were synthesized to order, without any modification, by CASLO ApS (Denmark). All the peptides were synthesized using the solid-phase synthetic procedures and standard Fmoc [N-(9-fluorenyl)methoxycarbonyl] chemistry, and then underwent reverse-phase HPLC purification.
All surface plasmon resonance experiments were carried out at 25 °C in a Biacore 3000 (Cytiva) robotic biosensor. Analyses were performed using HBSP (10 mM HEPES pH 7.4, 150 mM NaCl, 0.005% surfactant P20) supplemented with 1 mM CaCl2 as running buffer and for the dilution of analytes and ligands. Biotinylated peptides were individually immobilized on a streptavidin-coated sensor chip in flow cells 2, 3 and 4 at a flow rate of 10 µl/min (20–50 RU captured). The empty flow cell 1 was used as a control for non-specific binding and bulk effects. Purified CaM was injected at different concentrations ranging from 13.2 nM to 9.6 µM in duplicate, at a flowrate of 50 µl/min, with an association time of 60 s followed by dissociation for 60 s. After that, the sensor chip was regenerated by injection of 10 mM glycine–HCl, pH 1.7, with a contact time of 12 s. […] Sensorgrams with different concentrations of CaM were overlaid, aligned and analyzed with BIAevaluation Software 4.1, using the double-reference method. […]

Sequence	affinity / interaction with CaM relative to the intact 2-19 peptide (in words)
KGGSVKEGAQRKAAALKEKLG [Peptide W11A, 2-19 INF2 peptide with the W11A mutation]	undetectable
KGGSVKEGAQRKAAAAKEKAG [Peptide W11L14L18A, 2-19 INF2 peptide with the triple W11L14L18A mutation]	undetectable
KGGSVKEGAQRKWAAAKEKAG [L14L18A 2-19 peptide, 2-19 INF2 peptide with the double L14L18A mutation]	reduced affinity
